Reference: patent US11434205B2, “Substituted imidazole carboxylate derivatives and the use thereof” (priority 2018, dated 2022)
pEC50: −log10 of the molar value.

Tests used:
rats [1] = system: rats
Experimental: (§1) Adult male Sprague-Dawley rats (250-300 g) were selected for the experiment. […] The anesthesia effects of the compounds were assessed in rats using a LORR assay and a period >30 s was considered as an indicator of general anesthesia. Then the up and down method was used to determine 50% effective dose (ED50). The drugs were administered through the tail vein of rats in a volume of 0.6 mL and at a rate of 0.1 mL/s.

rats [2] = test: Loss of righting reflexes (LORR) assay in rats, ED50 by up and down method; type: in vivo, rat; details: tail vein, class symbols; for ED50: Rattus norvegicus
Experimental: The Anesthetic Activity of the Compounds was Assessed in Rats Using a Loss of Righting Reflexes (LORR) Assay
as §1

rats [3] = test: Pharmacological characteristics at equivalent doses (2×ED50) in rats; details: 2×ED50, tail vein; for Adverse reactions: Red urine (incidence): DMSO solution (DMSO alone 10/10); for Adverse reactions: Tremor (incidence): animals affected/animals; for Onset time: time of LORR
Experimental: Comparison of Pharmacological Characteristics of the Compounds at Equivalent Doses (2×ED50) in Rats
Adult male Sprague-Dawley rats (250-300 g) were selected for the experiment (n=8). […] The drugs were administered at a dose twice their ED50 through the tail vein of rats in a volume of 0.6 mL and at a rate of 0.1 mL/s. In addition, the time of LORR was recorded as the onset time of anesthesia. […] Furthermore, the duration of the pharmacological effects is sufficient to meet the time requirements for rapid induction of general anesthesia and for diagnostic examinations, some short invasive clinical examinations, or operations.

[4] = system: secretion of cortisol, H295R cell line; test: cells; type: cell-based; details: for Cortisol as an indicator to determine the presence of inhibition: H295R; for pEC50: Homo sapiens, NCI-H295R, read-out: EC50 (Cortisol)
Experimental: (§2) The Effects of the Compounds on Adrenocortical Function In Vitro Test
(§3) Then secretion of the cortisol and corticosterone in the supernatant, was measured using HPLC-MS/MS method to determine whether the compounds of the present invention had adrenotoxic potential.

[5] = system: secretion of corticosterone, H295R cell line; test: cells; type: cell-based; details: for Corticosterone as an indicator to determine the presence of inhibition: H295R; for pEC50: Homo sapiens, NCI-H295R, read-out: EC50 (Corticosterone)
Experimental: as §2, §3

Compound | Approximate therapeutic index (rats [1]) | Minimal lethal dose (rats [1]) [mg/kg] | ED50 (rats [2]) [mg/kg] | Righting reflex duration (rats [3]) [min] | Adverse reactions: Red urine (incidence) (rats [3]) | Adverse reactions: Tremor (incidence) (rats [3]) | Onset time (rats [3]) [min] | Cortisol as an indicator to determine the presence of inhibition ([4]; Table A3) | pEC50 [4] | Corticosterone as an indicator to determine the presence of inhibition ([5]; Table A3) | pEC50 [5] | Cortisol as an indicator to determine the presence of inhibition ([4]; Table C3) | Corticosterone as an indicator to determine the presence of inhibition ([5]; Table C3) | Adverse reactions: Tongue stretching (incidence) (rats [3]) | ED50 (mg/kg) (rats [2]) | Sedation duration (mg/kg) (rats [3]) | Adverse reactions: Restlessness (incidence) (rats [3])
CCC1(COC(=O)c2cncn2[C@H](C)c2ccccc2)CC1 [Compound A9] | >13 | >5 | 0.1 to 0.5 | 4.80 ± 1.25 | 8/8 | 5/8 | 0.40 ± 0.15 | 0 | < 5.00 | 0 | < 5.00 | – | – | – | – | – | –
C[C@H](c1ccccc1)n1cncc1C(=O)OC1(C)CCC1=O (stereo partly drawn) [Compound A13] | >10 | >4 | 0.1 to 0.5 | 2.31 ± 2.14 | Red urine (8/8) | – | 0.56 ± 0.12 | 0 | < 5.00 | 0 | < 5.00 | – | – | – | – | – | –
C[C@H](c1ccccc1)n1cncc1C(=O)OCC1(C(F)F)CCC1 [Compound A19] | >10 | >5 | 0.1 to 0.5 | 6.13 ± 2.87 | Red urine (8/8) | – | 0.36 ± 0.16 | 0 | < 5.00 | 0 | < 5.00 | – | – | – | – | – | –
C[C@H](c1ccccc1)n1cncc1C(=O)OC1(C2CO2)CCC1 (stereo partly drawn) [Compound A20] | >22 | >3 | 0.01 to 0.1 | 1.90 ± 0.74 | Red urine (8/8) | – | 0.11 ± 0.03 | 0 | < 5.00 | 0 | < 5.00 | – | – | – | – | – | –
CCC(=O)C1(OC(=O)c2cncn2[C@H](C)c2ccccc2)CC1 [Compound C16] | >14 | >10 | 0.5 to 1 | 1.31 ± 0.95 | Red urine (8/8) | – | 0.73 ± 0.23 | – | < 6.00 | – | < 6.00 | 0 | 0 | – | – | – | –
CCC(C)(C)OC(=O)c1cncn1[C@H](C)c1ccccc1 [Compound C19] | >20 | >5 | 0.1 to 0.5 | 1.26 ± 0.99 | Red urine (8/8) | – | 0.45 ± 0.23 | – | < 6.00 | – | < 6.00 | 0 | 0 | – | – | – | –
CSCCSC(=O)c1cncn1[C@H](C)c1ccccc1 [Compound C30] | >11 | >11 | 0.5 to 1 | 3.67 ± 1.48 | Red urine (8/8) | – | 0.23 ± 0.03 | – | < 6.00 | – | – | 0 | 0 | – | – | – | –
CC#CC(C)(C)OC(=O)c1cncn1[C@H](C)c1ccccc1 [Compound D31] | >13 | >9 | 0.5 to 1 | 2.65 ± 1.10 | Red urine (8/8) | – | 0.41 ± 0.15 | – | – | – | – | – | – | – | – | – | –
CC#CC(C)OC(=O)c1cncn1[C@H](C)c1ccccc1 (stereo partly drawn) [Compound D32] | >16 | >5 | 0.1 to 0.5 | 2.14 ± 1.23 | Red urine (8/8) | – | 0.49 ± 0.23 | – | – | – | – | – | – | Tongue stretching (2/8), | – | – | –
C=C=CC1(SC(=O)c2cncn2[C@H](C)c2ccccc2)COC1 [Compound D33] | >10 | >8 | 0.5 to 1 | 0.92 ± 0.33 | Red urine (8/8) | – | 0.71 ± 0.22 | – | – | – | – | – | – | – | – | – | –
C=CC#CC(C)OC(=O)c1cncn1[C@H](C)c1ccccc1 (stereo partly drawn) [Compound D59] | >11 | >13 | 0.1 to 0.5 | 5.83 ± 1.06 | Red urine (8/8) | – | 0.15 ± 0.02 | – | – | – | – | – | – | – | – | – | –
C#CC1(OC(=O)c2c(F)ncn2[C@H](C)c2ccccc2)COC1 [Compound E4] | >20 | >10 | – | 4.38 ± 1.29 | (8/8) | – | 0.45 ± 0.05 | – | – | – | – | – | – | – | B (B means that the measured ED50 is in the range of 0.10-0.50 mg/kg (excluding 0.10 mg/kg, including 0.50 mg/kg).) | 10.65 ± 1.31 | –
C[C@H](c1ccccc1)n1cnc(F)c1C(=O)OC1CC1 [Compound E34] | >12 | >2 | 0.1 to 0.5 | 1.78 ± 1.09 | (8/8) | – | 0.29 ± 0.20 | – | – | – | – | – | – | (1/8), | – | – | –
C=C=CC1(OC(=O)c2c(F)ncn2[C@H](C)c2ccccc2)CCCCC1 [Compound E36] | >26 | >5 | 0.5 to 1 | 2.21 ± 1.86 | (8/8) | – | 0.49 ± 0.17 | – | – | – | – | – | – | – | – | – | –
C=C=CC(CC)OC(=O)c1c(F)ncn1[C@H](C)c1ccccc1 (stereo partly drawn) [Compound E77] | >12 | >10 | 0.5 to 1 | 1.90 ± 0.74 | urine (8/8) | (2/8), Red | 0.11 ± 0.03 | – | – | – | – | – | – | – | – | – | –
CC#CC1(OC(=O)c2c(F)ncn2[C@H](C)c2ccccc2)CSC1 [Compound E91] | >6 | >20 | 0.5 to 1 | 1.24 ± 0.63 | (8/8) | – | 0.48 ± 0.21 | – | – | – | – | – | – | – | – | – | –
C[C@H](c1ccccc1)n1c(Cl)nc(Cl)c1C(=O)OC1COC1 [Compound E132] | >14 | >10 | 0.5 to 1 | 2.70 ± 1.15 | urine (8/8) | – | 0.18 ± 0.06 | – | – | – | – | – | – | – | – | – | (2/8), Red
